Experiments:
Assay in all cases: Test E greenhouse herbicide test, pre- and postemergence
Format in all cases: in vivo
Conditions in all cases: Preemergence
[1] = system: goosegrass (Eleusine indica)
Text: (§1) Seeds of plant species selected from corn (Zea mays), soybean (Glycine max), velvetleaf (Abutilon theophrasti), lambsquarters (Chenopodium album), wild poinsettia (Euphorbia heterophylla), pigweed, palmer (palmer pigweed, Amaranthus palmeri), waterhemp (common waterhemp, Amaranthus rudis), surinam grass (Brachiaria decumbens), crabgrass, large (large crabgrass, Digitaria sanguinalis), crabgrass, Brazilian (Brazilian crabgrass, Digitaria horizontalis), panicum, fall (fall panicum, Panicum dichotomiflorum), foxtail, giant (giant foxtail, Setaria faberii), foxtail, green (green foxtail, Setaria viridis), goosegrass (Eleusine indica), johnsongrass (Sorghum halepense), ragweed (common ragweed, Ambrosia elatior), barnyardgrass (Echinochloa crus-galli), sandbur (southem sandbur, Cenchrus echinatus), arrowleaf sida (Sida rhombifolia), Italian ryegrass (Lolium multiflorum), dayflower (Virginia (VA) dayflower, Commelina virginica), field bindweed (Convolvulus arvensis), momingglory (Ipomoea coccinea), nightshade (eastern black nightshade, Solanum ptycanthum), kochia (Kochia scoparia), nutsedge, yellow (yellow nutsedge, Cyperus esculentus), horseweed (Conyza canadensis), and beggarticks (hairy beggarticks, Bidens pilosa), were planted into a silt loam soil and treated preemergence with test chemicals formulated in a non-phytotoxic solvent mixture which included a surfactant.
(§2) At the same time, plants from these crop and weed species and also waterhemp_RES1, (ALS & Triazine resistant common waterhemp, Amaranthus rudis), and waterhemp_RES2, (ALS & HPPD resistant common waterhemp, Amaranthus rudis) were planted in pots containing Redi-Earth® planting medium (Scotts Company, 14111 Scottslawn Road, Marysville, Ohio 43041) comprising spaghnum peat moss, vermiculite, wetting agent and starter nutrients were treated with postemergence applications of test chemicals formulated in the same manner. Plants ranged in height from 2 to 18 cm for postemergence treatments (1- to 4-leaf stage). Treated plants and controls were maintained in a greenhouse for 14 to 21 d, after which time all species were compared to controls and visually evaluated. Plant response ratings, summarized in Table E, are based on a scale of 0 to 100 where 0 is no effect and 100 is complete control. A dash (-) response means no test result.

corn (Zea mays) = system: corn (Zea mays)
Text: as §1, §2

[2] = system: pigweed, palmer (palmer pigweed, Amaranthus palmeri)
Text: as §1, §2

[3] = system: sandbur (southem sandbur, Cenchrus echinatus)
Text: as §1, §2

[4] = system: surinam grass (Brachiaria decumbens)
Text: as §1, §2

[5] = system: arrowleaf sida (Sida rhombifolia)
Text: as §1, §2

[6] = system: panicum, fall (fall panicum, Panicum dichotomiflorum)
Text: as §1, §2

[7] = system: johnsongrass (Sorghum halepense)
Text: as §1, §2

[8] = system: foxtail, giant (giant foxtail, Setaria faberii)
Text: as §1, §2

[9] = system: velvetleaf (Abutilon theophrasti)
Text: as §1, §2

[10] = system: lambsquarters (Chenopodium album)
Text: as §1, §2

[11] = system: ragweed (common ragweed, Ambrosia elatior)
Text: as §1, §2

[12] = system: beggarticks (hairy beggarticks, Bidens pilosa)
Text: as §1, §2

kochia (Kochia scoparia) = system: kochia (Kochia scoparia)
Text: as §1, §2

soybean (Glycine max) = system: soybean (Glycine max)
Text: as §1, §2

[13] = system: crabgrass, Brazilian (Brazilian crabgrass, Digitaria horizontalis)
Text: as §1, §2

[14] = 62 g ai/ha, scale 0 to 100 (0 no effect, 100 complete control)
[15] = 31 g ai/ha, scale 0 to 100, 0 no effect, 100 complete control
[16] = 125 g ai/ha, visual, scale 0 no effect to 100 complete control
[17] = 250 g ai/ha, visual, scale 0 no effect to 100 complete control
[18] = 125 g ai/ha, scale 0 to 100 (0 no effect, 100 complete control)

Cc1ccc2ccccc2c1-c1c(O)c(C)nn(C)c1=O [Compound 59]
95: Plant response rating, Goosegrass [1, 14] | Plant response rating, Pigweed, Palmer [2, 15] | Plant response rating, Arrowleaf Sida [5, 14] | Plant response rating, Panicum, Fall [6, 15] | Plant response rating, Foxtail, Giant [8, 14] | Plant response rating, Velvetleaf [9, 14] | Plant response rating, Velvetleaf [9, 18] | Plant response rating, Ragweed [11, 14]
0: Plant response rating, Corn (corn (Zea mays); [14]) | Plant response rating, Corn (corn (Zea mays); [15]) | Plant response rating, Corn (corn (Zea mays); [16]) | Plant response rating, Johnsongrass [7, 15]
80: Plant response rating, Arrowleaf Sida [5, 15] | Plant response rating, Johnsongrass [7, 16] | Plant response rating, Johnsongrass [7, 17] | Plant response rating, Kochia (kochia (Kochia scoparia); [15])
35: Plant response rating, Soybean (soybean (Glycine max); [15])
98: Plant response rating, Goosegrass [1, 16] | Plant response rating, Goosegrass [1, 17] | Plant response rating, Pigweed, Palmer [2, 14] | Plant response rating, Arrowleaf Sida [5, 16] | Plant response rating, Arrowleaf Sida [5, 17] | Plant response rating, Panicum, Fall [6, 14] | Plant response rating, Foxtail, Giant [8, 16] | Plant response rating, Velvetleaf [9, 17]
60: Plant response rating, Crabgrass, Brazil [13, 15]
25: Plant response rating, Johnsongrass [7, 14]
100: Plant response rating, Pigweed, Palmer [2, 18] | Plant response rating, Pigweed, Palmer [2, 17] | Plant response rating, Surinam Grass [4, 18] | Plant response rating, Surinam Grass [4, 17] | Plant response rating, Panicum, Fall [6, 18] | Plant response rating, Panicum, Fall [6, 17] | Plant response rating, Foxtail, Giant [8, 17] | Plant response rating, Lambsquarters [10, 14] | Plant response rating, Lambsquarters [10, 15] | Plant response rating, Lambsquarters [10, 16] | Plant response rating, Lambsquarters [10, 17] | Plant response rating, Ragweed [11, 18] | Plant response rating, Ragweed [11, 15] | Plant response rating, Ragweed [11, 17] | Plant response rating, Beggarticks [12, 14] | Plant response rating, Beggarticks [12, 15] | Plant response rating, Beggarticks [12, 16] | Plant response rating, Beggarticks [12, 17] | Plant response rating, Kochia (kochia (Kochia scoparia); [16]) | Plant response rating, Kochia (kochia (Kochia scoparia); [17]) | Plant response rating, Crabgrass, Brazil [13, 16] | Plant response rating, Crabgrass, Brazil [13, 17]
85: Plant response rating, Surinam Grass [4, 15] | Plant response rating, Foxtail, Giant [8, 15]
20: Plant response rating, Corn (corn (Zea mays); [17])
70: Plant response rating, Sandbur [3, 14] | Plant response rating, Sandbur [3, 15] | Plant response rating, Soybean (soybean (Glycine max); [17])
90: Plant response rating, Goosegrass [1, 15] | Plant response rating, Sandbur [3, 18] | Plant response rating, Sandbur [3, 17] | Plant response rating, Surinam Grass [4, 14] | Plant response rating, Velvetleaf [9, 15] | Plant response rating, Kochia (kochia (Kochia scoparia); [14]) | Plant response rating, Crabgrass, Brazil [13, 14]
30: Plant response rating, Soybean (soybean (Glycine max); [14]) | Plant response rating, Soybean (soybean (Glycine max); [18])

Reference: patent US10597388B2, “Pyridazinone herbicides” (FMC CORPORATION, priority 2014, dated 2020)
